Patent US20240270751A1, “Pyrazolopyridinone Compounds” (BeiGene Ltd., priority 2021, published 2024)

How the values were obtained:
DGKα = DGKα (Homo sapiens (Human), UniProt P23743); assay: Biochemical DGK IC50 assay, DGKα ADP-Glo assay; conditions: 7.5 nM enzyme, 140 μM ATP, 80 μM DAG
Protocol: (§1) Enzymatic reactions of DGKζ, DGKα and DGKδ were performed using ADP-Glo assay with lipid micelle substrate. […] Full length DGKα (D21-10BG, SignalChem) and full length DGKδ (D23-10G, SignalChem) were purchased. Lipid micelle was prepared by dissolving DAG (Sigma, 317505-10MG) and PS (Sigma, P7769-100MG) with chloroform which was furtherly removed by rotary evaporation. The resulted product was resuspended in buffer containing 25 mM HEPES pH 7.0, 0.5 mM EDTA and 160 mM Octyl β-D glucopyranoside by vigorous mixing and ultrasonic (IID, Scientz).
(§2) The ranges of compounds final concentration were 1.55˜10000 nM or 23.3˜150000 nM. 3 μL 2× enzyme solution was added to wells.

DGKζ = DGKζ (Homo sapiens (Human), UniProt Q13574); assay: Biochemical DGK IC50 assay, DGKζ ADP-Glo assay; conditions: 0.5 nM enzyme, 140 μM ATP, 80 μM DAG; read-out: DGKζ ADP-Glo assay IC50
Sequence of DGKζ (Q13574 other isoform, or with tags, fused parts or gaps): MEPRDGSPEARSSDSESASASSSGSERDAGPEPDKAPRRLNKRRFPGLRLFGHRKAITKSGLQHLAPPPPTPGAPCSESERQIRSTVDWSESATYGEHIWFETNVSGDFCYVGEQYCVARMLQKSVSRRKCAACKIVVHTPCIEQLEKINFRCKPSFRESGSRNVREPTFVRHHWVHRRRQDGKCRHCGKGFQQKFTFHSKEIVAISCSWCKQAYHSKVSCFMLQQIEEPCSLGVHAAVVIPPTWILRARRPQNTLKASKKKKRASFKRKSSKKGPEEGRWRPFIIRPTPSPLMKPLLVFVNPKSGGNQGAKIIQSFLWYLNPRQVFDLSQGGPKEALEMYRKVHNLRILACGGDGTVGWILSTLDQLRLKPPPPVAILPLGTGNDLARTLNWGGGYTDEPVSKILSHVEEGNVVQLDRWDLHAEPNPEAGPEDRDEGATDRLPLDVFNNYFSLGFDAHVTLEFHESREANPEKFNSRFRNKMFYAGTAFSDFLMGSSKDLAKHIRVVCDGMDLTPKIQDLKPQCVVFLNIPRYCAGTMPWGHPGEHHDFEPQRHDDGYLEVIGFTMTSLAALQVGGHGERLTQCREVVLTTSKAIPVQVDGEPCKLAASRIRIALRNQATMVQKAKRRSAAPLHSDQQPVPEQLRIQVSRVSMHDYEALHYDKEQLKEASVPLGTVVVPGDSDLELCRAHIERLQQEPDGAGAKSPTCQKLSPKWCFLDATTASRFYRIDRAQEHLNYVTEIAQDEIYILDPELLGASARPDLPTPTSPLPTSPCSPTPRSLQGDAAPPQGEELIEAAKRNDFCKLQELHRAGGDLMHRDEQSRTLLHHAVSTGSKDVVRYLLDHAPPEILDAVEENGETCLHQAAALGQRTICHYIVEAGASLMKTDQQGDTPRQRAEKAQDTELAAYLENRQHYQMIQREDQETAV
Protocol: as §1, §2
Human His-TEV-DGK-zeta-pFastBac1 and human baculovirus samples was generated using the Bac-to-Bac baculovirus expression system (Invitrogen) according to the manufacturer's protocol. The DNA used for expression of DGK-zeta, have SEQ ID Nos: 1. Baculovirus amplification was achieved using infected SF9 cells at 1:2000 virus/cells ratios, and grown for 96 hours at 27° C. post-transfected.
The expression scaled up for each protein was carried out in the […] from CORNING. 4 L of 3×10^6 cells/mL Sf9 cells (Expression System, Invitrogen) grown in SF900™ II SFM insect medium (Expression System) was infected with virus stock at 1:200 virus/cells ratio, and grown for 48 hours at 27° C. post-transfection. The infected cell culture was harvested by centrifugation at 6000 rpm for 15 min 4° C. in a SORVALL LYNX6000 centrifuge. The cell pellets were stored at −80° C.
Full length human DGKζ produced as described above, was purified from Sf9 baculovirus-infected insect cell paste. The cells were lysed using sonication method, and the lysates were clarified by centrifugation.

Sequence of DGKα (P23743 whole entry): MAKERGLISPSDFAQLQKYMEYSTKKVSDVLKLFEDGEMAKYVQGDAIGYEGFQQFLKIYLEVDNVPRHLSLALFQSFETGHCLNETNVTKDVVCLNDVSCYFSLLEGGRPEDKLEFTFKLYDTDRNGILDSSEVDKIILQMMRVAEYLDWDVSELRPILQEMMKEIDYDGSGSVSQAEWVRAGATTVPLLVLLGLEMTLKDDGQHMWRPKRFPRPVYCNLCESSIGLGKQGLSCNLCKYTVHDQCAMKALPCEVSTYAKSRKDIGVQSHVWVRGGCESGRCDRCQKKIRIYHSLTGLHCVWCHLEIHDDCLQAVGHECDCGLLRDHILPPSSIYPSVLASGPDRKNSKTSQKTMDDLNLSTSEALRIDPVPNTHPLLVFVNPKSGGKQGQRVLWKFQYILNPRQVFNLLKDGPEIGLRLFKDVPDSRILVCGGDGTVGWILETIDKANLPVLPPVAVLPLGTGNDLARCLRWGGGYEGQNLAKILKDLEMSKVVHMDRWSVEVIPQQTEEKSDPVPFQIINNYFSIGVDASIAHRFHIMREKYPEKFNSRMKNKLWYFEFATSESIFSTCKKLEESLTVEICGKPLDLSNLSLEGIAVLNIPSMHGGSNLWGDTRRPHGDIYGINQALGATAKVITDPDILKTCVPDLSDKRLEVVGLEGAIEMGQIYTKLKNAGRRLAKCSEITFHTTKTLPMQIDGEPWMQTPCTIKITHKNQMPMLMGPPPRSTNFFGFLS

IC50 (DGKα) | IC50 (DGKζ) | Compound
27000 nM | 410 nM | CC[C@H]1CN(C(C)c2ccc3nccnc3c2)[C@H](C)CN1c1cc(=O)n(C)c2cn(CC#N)nc12 (stereo partly drawn) [Compound A98, 2-(7-((2S,5R)-2-ethyl-5-methyl-4-(1-(quinoxalin-6-yl)ethyl)piperazin-1-yl)-4-methyl-5-oxo-4,5-dihydro-2H-pyrazolo[4,3-b]pyridin-2-yl)acetonitrile]
> 10000 nM | 9390 nM | C[C@@H]1CN(c2c(Cl)c(=O)n(C)c3cn(CC#N)nc23)[C@@H](C)CN1[C@@H](C)c1ccc2nccnc2c1 [Compound A133, 2-(6-chloro-7-((2S,5R)-2,5-dimethyl-4-((S)-1-(quinoxalin-6-yl)ethyl)piperazin-1-yl)-4-methyl-5-oxo-4,5-dihydro-2H-pyrazolo[4,3-b]pyridin-2-yl)acetonitrile]
3830 nM | > 10000 nM | CC[C@H]1CN(C(C)c2cccc(C(N)=O)c2)[C@H](CC)CN1c1cc(=O)n(C)c2cn(CC#N)nc12 (some centres unmarked) [Compound A108]
108 nM | 795 nM | CC#CCn1cc2c(n1)c(N1C[C@@H](CC)N(C(C)c3cc4ccccc4cn3)C[C@@H]1C)cc(=O)n2C (stereo partly drawn) [Compound A393, 2-(but-2-yn-1-yl)-7-((2S,5R)-5-ethyl-4-(1-(isoquinolin-3-yl)ethyl)-2-methylpiperazin-1-yl)-4-methyl-2,4-dihydro-5H-pyrazolo[4,3-b]pyridin-5-one]
1320 nM | 1480 nM | CC#CCn1cc2c(n1)c(N1C[C@@H](CC)N(C(C)c3ccc4c(c3)OC(F)(F)O4)C[C@@H]1C)cc(=O)n2C (single isomer, unassigned) [Compound A392a]
55100 nM | 64 nM | CCc1cnc2ccc(C(C)N3C[C@H](C)N(c4cc(=O)n(C)c5cn(CC#N)nc45)C[C@H]3C)cc2n1 (stereo partly drawn) [Compound A278, 2-(7-((2S,5R)-4-(1-(3-ethylquinoxalin-6-yl)ethyl)-2,5-dimethylpiperazin-1-yl)-4-methyl-5-oxo-4,5-dihydro-2H-pyrazolo[4,3-b]pyridin-2-yl)acetonitrile]
6650 nM | 77 nM | CC[C@H]1CN(C(C)c2ccc3nc(OC)cnc3c2)[C@H](CC)CN1c1cc(=O)n(C)c2cn(CC#N)nc12 (single isomer, unassigned) [Compound A281a]
31000 nM | 570 nM | CC(c1ccc2nccnc2c1)N1C[C@H](C)N(c2cc(=O)n(C)c3cn(C(C)C#N)nc23)C[C@H]1C (some centres unmarked) [Compound A8]
2800 nM | 230 nM | CC[C@H]1CN(C(C)c2ccc3ncn(C)c3c2)[C@H](CC)CN1c1cc(=O)n(C)c2cn(CC#N)nc12 (some centres unmarked) [Compound A64]
1570 nM | 60 nM | CC#CCn1cc2c(n1)c(N1C[C@@H](C)N([C@@H](C)c3ccc4ncc(C)nc4c3)C[C@@H]1C)cc(=O)n2C [Compound A336]
490 nM | 462 nM | CC[C@H]1CN(C(C)c2ccc(C)nc2)[C@H](CC)CN1c1cc(=O)n(C)c2cn(CC#N)nc12 (single isomer, unassigned) [Compound A349a]
177 nM | 8.6 nM | CC[C@H]1CN(C(C)c2ccc3cccnc3c2)[C@H](CC)CN1c1cc(=O)n(C)c2cn(CC#N)nc12 (some centres unmarked) [Compound A61]
2370 nM | > 10000 nM | CC[C@@H]1CN(c2cc(=O)n(C)c3cn(CC)nc23)[C@@H](C)CN1C(C)c1ccc2nccnc2c1 (single isomer, unassigned) [Compound A221b]
310 nM | 6.7 nM | CC[C@H]1CN(C(C)c2ccc3nccnc3c2)[C@H](CC)CN1c1cc(=O)n(C)c2cn(CC#N)nc12 (mixture of isomers) [Compound A28, 2-(7-((2S,5R)-2,5-diethyl-4-(1-(quinoxalin-6-yl)ethyl)piperazin-1-yl)-4-methyl-5-oxo-4,5-dihydro-2H-pyrazolo[4,3-b]pyridin-2-yl)acetonitrile]

The remaining lines, values behind:

Compound | IC50 (DGKα) | IC50 (DGKζ)
CC(OC(F)F)c1cc(F)ccc1C(C)N1C[C@H](C)N(c2cc(=O)n(C)c3cn(CC#N)nc23)C[C@H]1C (stereo partly drawn) [Compound A328, 2-(7-((2S,5R)-4-(1-(2-(1-(difluoromethoxy)ethyl)-4-fluorophenyl)ethyl)-2,5-dimethylpiperazin-1-yl)-4-methyl-5-oxo-4,5-dihydro-2H-pyrazolo[4,3-b]pyridin-2-yl)acetonitrile] | 83000 nM | 143 nM
CC[C@H]1CN(C(C)c2nc3ccc(C(F)(F)F)cc3n2CC)[C@H](CC)CN1c1cc(=O)n(C)c2cn(CC#N)nc12 (single isomer, unassigned) [Compound A204a] | > 10000 nM | 3290 nM
CC[C@H]1CN(C(C)c2ccc(F)cc2OC(F)(F)F)[C@H](CC)CN1c1cc(=O)n(C)c2cn(CC#N)nc12 (stereo partly drawn) [Compound A170, 2-(7-((2S,5R)-2,5-diethyl-4-(1-(4-fluoro-2-(trifluoromethoxy)phenyl)ethyl)piperazin-1-yl)-4-methyl-5-oxo-4,5-dihydro-2H-pyrazolo[4,3-b]pyridin-2-yl)acetonitrile] | > 10000 nM | 887 nM
Cc1nc2cccc(C(C)N3C[C@H](C)N(c4cc(=O)n(C)c5cn(CC#N)nc45)C[C@H]3C)c2o1 (some centres unmarked) [Compound A42] | > 10000 nM | 3390 nM
CC[C@H]1CN(C(C)c2ccc3c(c2)OCCO3)[C@H](CC)CN1c1cc(=O)n(C)c2cn(CC#N)nc12 (stereo partly drawn) [Compound A126, 2-(7-((2S,5R)-4-(1-(2,3-dihydrobenzo[b][1,4]dioxin-6-yl)ethyl)-2,5-diethylpiperazin-1-yl)-4-methyl-5-oxo-4,5-dihydro-2H-pyrazolo[4,3-b]pyridin-2-yl)acetonitrile] | 449 nM | 7.2 nM
CC[C@H]1CN(C(C)c2ccc(F)cc2C(N)=O)[C@H](CC)CN1c1cc(=O)n(C)c2cn(CC#N)nc12 (some centres unmarked) [Compound A289] | > 10000 nM | 1130 nM
CC(c1ccc(F)cc1OC(F)F)N1C[C@H](C)N(c2cc(=O)n(C)c3cn(CC#N)nc23)C[C@H]1C (stereo partly drawn) [Compound A247, 2-(7-((2S,5R)-4-(1-(2-(difluoromethoxy)-4-fluorophenyl)ethyl)-2,5-dimethylpiperazin-1-yl)-4-methyl-5-oxo-4,5-dihydro-2H-pyrazolo[4,3-b]pyridin-2-yl)acetonitrile] | > 10000 nM | 283 nM
CC(c1ccc(Cl)cc1C(F)(F)F)N1C[C@H](C)N(c2cc(=O)n(C)c3cn(CC#N)nc23)C[C@H]1C (some centres unmarked) [Compound A251] | > 10000 nM | 3270 nM
CC[C@H]1CN(C(C)c2ccc(F)cc2C(F)(F)F)[C@H](CC)CN1c1cc(=O)n(C)c2cn(CC#N)nc12 (single isomer, unassigned) [Compound A196a] | > 10000 nM | 1350 nM
CC[C@H]1CN(C(C)c2ccc(Cl)cn2)[C@H](CC)CN1c1cc(=O)n(C)c2cn(CC#N)nc12 (single isomer, unassigned) [Compound A360b] | 2.7 nM | 134 nM
COC(C)c1cc(F)ccc1C(C)N1C[C@H](C)N(c2cc(=O)n(C)c3cn(CC#N)nc23)C[C@H]1C (single isomer, unassigned) [Compound A286a] | > 10000 nM | 2610 nM
CC[C@H]1CN(C(C)c2ccc3c(n2)C(C)(C)CO3)[C@H](CC)CN1c1cc(=O)n(C)c2cn(CC#N)nc12 (stereo partly drawn) [Compound A352, 2-(7-((2S,5R)-4-(1-(3,3-dimethyl-2,3-dihydrofuro[3,2-b]pyridin-5-yl)ethyl)-2,5-diethylpiperazin-1-yl)-4-methyl-5-oxo-4,5-dihydro-2H-pyrazolo[4,3-b]pyridin-2-yl)acetonitrile] | 5400 nM | 6 nM
CC[C@H]1CN(C(C)c2ccncc2C(F)(F)F)[C@H](CC)CN1c1cc(=O)n(C)c2cn(CC#N)nc12 (some centres unmarked) [Compound A118] | > 150000 nM | 185 nM
CC[C@H]1CN(C(C)c2ccccc2C(F)(F)F)[C@H](CC)CN1c1cc(=O)n(C)c2cn(CC#N)nc12 (single isomer, unassigned) [Compound A197b] | > 10000 nM | 169 nM
CCC(c1ccc(C2CC2)cc1)N1C[C@H](C)N(c2cc(=O)n(C)c3cn(CC#N)nc23)C[C@H]1C (some centres unmarked) [Compound A36] | 550 nM | 970 nM
CC(c1ccc2c(c1)OCCO2)N1C[C@H](C)N(c2cc(=O)n(C)c3cn(CC#N)nc23)C[C@H]1C (single isomer, unassigned) [Compound A43b] | 6570 nM | 50 nM
CC[C@@H]1CN(c2cc(=O)n(C)c3cn(CC#N)nc23)[C@@H](C)CN1C(c1ccc(F)cc1)c1ccc(C(F)(F)F)cn1 (stereo partly drawn) [Compound A332, 2-(7-((2S,5R)-5-ethyl-4-((4-fluorophenyl)(5-(trifluoromethyl)pyridin-2-yl)methyl)-2-methylpiperazin-1-yl)-4-methyl-5-oxo-4,5-dihydro-2H-pyrazolo[4,3-b]pyridin-2-yl)acetonitrile] | 123 nM | 169 nM
